Literature values, collected in patent US7803786B2, “Pharmaceutical co-crystal compositions and related methods of use” (Transform Pharmaceuticals, Inc., priority 2004, dated 2010).

What was measured:
[1] = co-crystal former; multiple values for multiple functionalities
[2] = Cambridge Structural Database (piracetam), Merck Index (gentisic acid)

Compound	pKa Values [1]	known polymorphism of the free form [2]
O=C(O)C(O)C(O)C(O)C(O)CO (stereo not drawn) [Gluconic acid]	3.76	–
O=C(O)c1cc(O)ccc1O [gentisic acid]	–	dimorphic
NC(=O)CN1CCCC1=O [piracetam]	–	Three polymorphs
